Values quoted from earlier work in article PMC3850926, “Evaluation of the adverse event profile and pharmacodynamics of toceranib phosphate administered to dogs with solid tumors at doses below the maximum tolerated dose” (BMC Veterinary Research, 2013).

Legend:
[1] = system: VEGF; design: method as in PMID 19212818; settings: human patients; return to baseline during rest period; cited from earlier work
[2] = system: human cancer patients; settings: cited from earlier work

Compound: CCN(CC)CCNC(=O)c1c(C)[nH]c(/C=C2\C(=O)Nc3ccc(F)cc32)c1C [sunitinib]
- circulating endothelial precursors and plasma VEGF during treatment [1]: increase over time during treatment
- incidence of PLN ([2]; human cancer patients): approximately 2.5%
- hypertension classified as grade 3 ([2]; human patients with RCC): 8%
- patients that developed hypertension ([2]; human patients with renal cell carcinoma (RCC)): 24%
